# Data as given in US8410161B2, “Thioxanthone ring system derivatives” (National Defense Medical Center, priority 2010, dated 2013).
# Assays:
# SK-MEL-2 = assay: NCI in vitro DTP human cell line screen, SK-MEL-2; assay type: cell-based; conditions: Melanoma, 1.00E−5 Molar
# Description: (§1) Then, a cell toxicity assay of the cancer lines made by National Cancer Institute will be discussed as follows. The cell toxicity assay is performed by choosing ten compounds (existing certification numbers) from the 59 compounds disclosed in the present invention first.
# SF-268 = assay: NCI in vitro DTP human cell line screen, SF-268; assay type: cell-based; conditions: CNS Cancer, 1.00E−5 Molar
# Description: as §1
# DU145 = assay: NCI in vitro DTP human cell line screen, DU145; assay type: cell-based; conditions: Prostate Cancer, 1.00E−5 Molar
# Description: as §1
# SK-MEL-28 = assay: NCI in vitro DTP human cell line screen, SK-MEL-28; assay type: cell-based; conditions: Melanoma, 1.00E−5 Molar
# Description: as §1
# RPMI-8226 = assay: NCI in vitro DTP human cell line screen, RPMI-8226; assay type: cell-based; conditions: Leukemia, 1.00E−5 Molar
# Description: as §1
# MDA-MB-231/ATCC = assay: NCI in vitro DTP human cell line screen, MDA-MB-231/ATCC; assay type: cell-based; conditions: Breast Cancer, 1.00E−5 Molar
# Description: as §1
# NCI-H23 = assay: NCI in vitro DTP human cell line screen, NCI-H23; assay type: cell-based; conditions: Non-Small Cell Lung Cancer, 1.00E−5 Molar
# Description: as §1
# CCRF-CEM = assay: NCI in vitro DTP human cell line screen, CCRF-CEM; assay type: cell-based; conditions: Leukemia, 1.00E−5 Molar
# Description: as §1
# SR = assay: NCI in vitro DTP human cell line screen, SR; assay type: cell-based; conditions: Leukemia, 1.00E−5 Molar
# Description: as §1
# MOLT-4 = assay: NCI in vitro DTP human cell line screen, MOLT-4; assay type: cell-based; conditions: Leukemia, 1.00E−5 Molar
# Description: as §1
# 786-0 = assay: NCI in vitro DTP human cell line screen, 786-0; assay type: cell-based; conditions: Renal Cancer, 1.00E−5 Molar
# Description: as §1
# ACHN = assay: NCI in vitro DTP human cell line screen, ACHN; assay type: cell-based; conditions: Renal Cancer, 1.00E−5 Molar
# Description: as §1
# TK-10 = assay: NCI in vitro DTP human cell line screen, TK-10; assay type: cell-based; conditions: Renal Cancer, 1.00E−5 Molar
# Description: as §1
# NCI-H522 = assay: NCI in vitro DTP human cell line screen, NCI-H522; assay type: cell-based; conditions: Non-Small Cell Lung Cancer, 1.00E−5 Molar
# Description: as §1
# M14 = assay: NCI in vitro DTP human cell line screen, M14; assay type: cell-based; conditions: Melanoma, 1.00E−5 Molar
# Description: as §1
# OVCAR-5 = assay: NCI in vitro DTP human cell line screen, OVCAR-5; assay type: cell-based; conditions: Ovarian Cancer, 1.00E−5 Molar
# Description: as §1
# MDA-MB-468 = assay: NCI in vitro DTP human cell line screen, MDA-MB-468; assay type: cell-based; conditions: Breast Cancer, 1.00E−5 Molar
# Description: as §1
# NCI-H322M = assay: NCI in vitro DTP human cell line screen, NCI-H322M; assay type: cell-based; conditions: Non-Small Cell Lung Cancer, 1.00E−5 Molar
# Description: as §1
# NCI/ADR-RES = assay: NCI in vitro DTP human cell line screen, NCI/ADR-RES; assay type: cell-based; conditions: Ovarian Cancer, 1.00E−5 Molar
# Description: as §1
# A3 cell lines = assay: MTT assay, A3 cell lines (lung cancer stem cell); assay type: cell-based
# Source text: Please to FIG. 4B, various cell viabilities of the A3 cell lines can be obtained through the MTT assay and illustrated in FIG. 4B while the compounds No. 1˜30 are used to treat A3 cell lines, wherein A3 cell lines are lung cancer stem cell.
# KM12 = assay: NCI in vitro DTP human cell line screen, KM12; assay type: cell-based; conditions: Colon Cancer, 1.00E−5 Molar
# Description: as §1
# MCF7 = assay: NCI in vitro DTP human cell line screen, MCF7; assay type: cell-based; conditions: Breast Cancer, 1.00E−5 Molar
# Description: as §1
# HCT-15 = assay: NCI in vitro DTP human cell line screen, HCT-15; assay type: cell-based; conditions: Colon Cancer, 1.00E−5 Molar
# Description: as §1
# PC-3 = assay: NCI in vitro DTP human cell line screen, PC-3; assay type: cell-based; conditions: Prostate Cancer, 1.00E−5 Molar
# Description: as §1
# SK-OV-3 = assay: NCI in vitro DTP human cell line screen, SK-OV-3; assay type: cell-based; conditions: Ovarian Cancer, 1.00E−5 Molar
# Description: as §1
# MALME-3M = assay: NCI in vitro DTP human cell line screen, MALME-3M; assay type: cell-based; conditions: Melanoma, 1.00E−5 Molar
# Description: as §1
# HOP-92 = assay: NCI in vitro DTP human cell line screen, HOP-92; assay type: cell-based; conditions: Non-Small Cell Lung Cancer, 1.00E−5 Molar
# Description: as §1
# HCC-2998 = assay: NCI in vitro DTP human cell line screen, HCC-2998; assay type: cell-based; conditions: Colon Cancer, 1.00E−5 Molar
# Description: as §1
# EKVX = assay: NCI in vitro DTP human cell line screen, EKVX; assay type: cell-based; conditions: Non-Small Cell Lung Cancer, 1.00E−5 Molar
# Description: as §1
# T-47D = assay: NCI in vitro DTP human cell line screen, T-47D; assay type: cell-based; conditions: Breast Cancer, 1.00E−5 Molar
# Description: as §1
# NCI-H460 = assay: NCI in vitro DTP human cell line screen, NCI-H460; assay type: cell-based; conditions: Non-Small Cell Lung Cancer, 1.00E−5 Molar
# Description: as §1
# CAKI-1 = assay: NCI in vitro DTP human cell line screen, CAKI-1; assay type: cell-based; conditions: Renal Cancer, 1.00E−5 Molar
# Description: as §1
# BT-549 = assay: NCI in vitro DTP human cell line screen, BT-549; assay type: cell-based; conditions: Breast Cancer, 1.00E−5 Molar
# Description: as §1
# COLO 205 = assay: NCI in vitro DTP human cell line screen, COLO 205; assay type: cell-based; conditions: Colon Cancer, 1.00E−5 Molar
# Description: as §1
# 60 cancer lines = assay: NCI cell toxicity assay of 60 cancer lines, whole panel summary; assay type: cell-based, human; conditions: mean over all cell lines; 1.00E−5 Molar
# Description: as §1
# SF-539 = assay: NCI in vitro DTP human cell line screen, SF-539; assay type: cell-based; conditions: CNS Cancer, 1.00E−5 Molar
# Description: as §1
# OVCAR-8 = assay: NCI in vitro DTP human cell line screen, OVCAR-8; assay type: cell-based; conditions: Ovarian Cancer, 1.00E−5 Molar
# Description: as §1
# SW-620 = assay: NCI in vitro DTP human cell line screen, SW-620; assay type: cell-based; conditions: Colon Cancer, 1.00E−5 Molar
# Description: as §1
# SF-295 = assay: NCI in vitro DTP human cell line screen, SF-295; assay type: cell-based; conditions: CNS Cancer, 1.00E−5 Molar
# Description: as §1
# A control cell lines = assay: MTT assay, A control cell lines (lung cancer cell); assay type: cell-based
# Source text: Please refer to Table 1 and FIGS. 4A-4C. According to a MTT assay (Table 1), various cell viabilities of the A control cell lines can be obtained and illustrated in FIG. 4A while the compounds No. 2˜30 are used to treat A control cell lines, wherein A control cell lines are lung cancer cell.
# U251 = assay: NCI in vitro DTP human cell line screen, U251; assay type: cell-based; conditions: CNS Cancer, 1.00E−5 Molar
# Description: as §1
# HCT-116 = assay: NCI in vitro DTP human cell line screen, HCT-116; assay type: cell-based; conditions: Colon Cancer, 1.00E−5 Molar
# Description: as §1
# HT29 = assay: NCI in vitro DTP human cell line screen, HT29; assay type: cell-based; conditions: Colon Cancer, 1.00E−5 Molar
# Description: as §1
# LOX IMVI = assay: NCI in vitro DTP human cell line screen, LOX IMVI; assay type: cell-based; conditions: Melanoma, 1.00E−5 Molar
# Description: as §1
# SK-MEL-5 = assay: NCI in vitro DTP human cell line screen, SK-MEL-5; assay type: cell-based; conditions: Melanoma, 1.00E−5 Molar
# Description: as §1
# SNB-75 = assay: NCI in vitro DTP human cell line screen, SNB-75; assay type: cell-based; conditions: CNS Cancer, 1.00E−5 Molar
# Description: as §1
# UACC-257 = assay: NCI in vitro DTP human cell line screen, UACC-257; assay type: cell-based; conditions: Melanoma, 1.00E−5 Molar
# Description: as §1
# UO-31 = assay: NCI in vitro DTP human cell line screen, UO-31; assay type: cell-based; conditions: Renal Cancer, 1.00E−5 Molar
# Description: as §1
# MDA-MB-435 = assay: NCI in vitro DTP human cell line screen, MDA-MB-435; assay type: cell-based; conditions: Melanoma, 1.00E−5 Molar
# Description: as §1
# IGROV1 = assay: NCI in vitro DTP human cell line screen, IGROV1; assay type: cell-based; conditions: Ovarian Cancer, 1.00E−5 Molar
# Description: as §1
# K562 = assay: NCI in vitro DTP human cell line screen, K562; assay type: cell-based; conditions: Leukemia, 1.00E−5 Molar
# Description: as §1
# NCI-H226 = assay: NCI in vitro DTP human cell line screen, NCI-H226; assay type: cell-based; conditions: Non-Small Cell Lung Cancer, 1.00E−5 Molar
# Description: as §1
# [1] = MTT assay, HEL299 fibroblast; assay type: cell-based; conditions: human
# Source text: Please refer to FIG. 4C, various cell viabilities of the HEL299 cell lines can be obtained through the MTT assay while the compounds No. 1˜30 are used to treat HEL299 cell lines, wherein HEL299 cell lines are fibroblast.
# OVCAR-3 = assay: NCI in vitro DTP human cell line screen, OVCAR-3; assay type: cell-based; conditions: Ovarian Cancer, 1.00E−5 Molar
# Description: as §1
# HL-60(TB) = assay: NCI in vitro DTP human cell line screen, HL-60(TB); assay type: cell-based; conditions: Leukemia, 1.00E−5 Molar
# Description: as §1
# HS 578-T = assay: NCI in vitro DTP human cell line screen, HS 578-T; assay type: cell-based; conditions: Breast Cancer, 1.00E−5 Molar
# Description: as §1
# OVCAR-4 = assay: NCI in vitro DTP human cell line screen, OVCAR-4; assay type: cell-based; conditions: Ovarian Cancer, 1.00E−5 Molar
# Description: as §1
smiles,measurement,setting,value
"Cc1cccc(C)c1Sc1ccc2c(=O)c3ccccc3sc2c1Cl [No. 12, 4-Chloro-3-(2,6-dimethylphenylthio)-9H-thioxanthen-9-one]",Growth Percent,SK-MEL-2,108.94%
same,Growth Percent,SF-268,98.33%
same,Growth Percent,DU145,109.56%
same,Growth Percent,SK-MEL-28,110.00%
same,Growth Percent,RPMI-8226,101.60%
same,Growth Percent,MDA-MB-231/ATCC,108.12%
same,Growth Percent,NCI-H23,93.96%
same,Growth Percent,CCRF-CEM,88.07%
same,Growth Percent,SR,95.93%
same,Growth Percent,MOLT-4,104.33%
same,Growth Percent,786-0,108.98%
same,Growth Percent,ACHN,103.68%
same,Growth Percent,TK-10,99.22%
same,Growth Percent,NCI-H522,100.28%
same,Growth Percent,M14,105.63%
same,Growth Percent,OVCAR-5,96.86%
same,Growth Percent,MDA-MB-468,113.20%
same,Growth Percent,NCI-H322M,113.78%
same,Growth Percent,NCI/ADR-RES,105.14%
same,cell viabilities of A3 cell lines (MTT assay),A3 cell lines,102 ± 9.52%
same,Growth Percent,KM12,113.08%
same,Growth Percent,MCF7,94.01%
same,Growth Percent,HCT-15,99.05%
same,Growth Percent,PC-3,98.56%
same,Growth Percent,SK-OV-3,111.32%
same,Growth Percent,MALME-3M,100.81%
same,Growth Percent,HOP-92,88.79%
same,Growth Percent,HCC-2998,103.54%
same,Growth Percent,EKVX,103.89%
same,Growth Percent,T-47D,97.56%
same,Growth Percent,NCI-H460,110.85%
same,Growth Percent,CAKI-1,89.35%
same,Growth Percent,BT-549,105.28%
same,Growth Percent,COLO 205,110.46%
same,"Growth Percent, Mean",60 cancer lines,102.52%
same,Growth Percent,SF-539,106.48%
same,Growth Percent,OVCAR-8,96.86%
same,Growth Percent,SW-620,105.40%
same,Growth Percent,SF-295,98.15%
same,cell viabilities of A control cell lines (MTT assay),A control cell lines,103 ± 5.86%
same,Growth Percent,U251,95.70%
same,Growth Percent,HCT-116,105.21%
same,Growth Percent,HT29,103.86%
same,Growth Percent,LOX IMVI,105.37%
same,Growth Percent,SK-MEL-5,104.77%
same,Growth Percent,SNB-75,90.00%
same,Growth Percent,UACC-257,92.09%
same,Growth Percent,UO-31,87.03%
same,Growth Percent,MDA-MB-435,107.09%
same,Growth Percent,IGROV1,98.49%
same,Growth Percent,K562,97.86%
same,Growth Percent,NCI-H226,109.77%
same,viability,[1],101 ± 9.52%
same,Growth Percent,OVCAR-3,113.05%
same,Growth Percent,HL-60(TB),109.07%
same,Growth Percent,HS 578-T,107.64%
same,Growth Percent,OVCAR-4,107.51%
